Several values for one entry are separate records, joined by “and”; a condition that tells them apart may be missing. Identical values can stand only once. Like-named read-outs stand apart in the source and are kept apart here.
How the values were obtained:
[1] = test system: erythroid progenitor cells (EPCs); assay: Fetal hemoglobin (HbF) ELISA in day 7 erythroid progenitor cells; type: cell-based, human; conditions: Homo sapiens, Erythroid progenitor cell, read-out: EPC ELISA (pEC50 category) (converted);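 as to EPC ELISA (pEC50 category): for fetal hemoglobin induction normalized to vehicle-treated cells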
How it was run: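 Read-out was OD450 from an HRP/TMB sandwich ELISA on lysates, normalized to DMSO-only control wells. Thawed day 7 EPCs from human marrow CD34+ cells had been treated for 5 days at 37° C with Compound A, 22 concentrations […].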

DNMT1 = DNMT1 (Homo sapiens, UniProt P26358); assay: DNMT1 biochemical activity, breaklight assay and/or SPA assay
Sequence of DNMT1 (P26358 whole entry, looked up): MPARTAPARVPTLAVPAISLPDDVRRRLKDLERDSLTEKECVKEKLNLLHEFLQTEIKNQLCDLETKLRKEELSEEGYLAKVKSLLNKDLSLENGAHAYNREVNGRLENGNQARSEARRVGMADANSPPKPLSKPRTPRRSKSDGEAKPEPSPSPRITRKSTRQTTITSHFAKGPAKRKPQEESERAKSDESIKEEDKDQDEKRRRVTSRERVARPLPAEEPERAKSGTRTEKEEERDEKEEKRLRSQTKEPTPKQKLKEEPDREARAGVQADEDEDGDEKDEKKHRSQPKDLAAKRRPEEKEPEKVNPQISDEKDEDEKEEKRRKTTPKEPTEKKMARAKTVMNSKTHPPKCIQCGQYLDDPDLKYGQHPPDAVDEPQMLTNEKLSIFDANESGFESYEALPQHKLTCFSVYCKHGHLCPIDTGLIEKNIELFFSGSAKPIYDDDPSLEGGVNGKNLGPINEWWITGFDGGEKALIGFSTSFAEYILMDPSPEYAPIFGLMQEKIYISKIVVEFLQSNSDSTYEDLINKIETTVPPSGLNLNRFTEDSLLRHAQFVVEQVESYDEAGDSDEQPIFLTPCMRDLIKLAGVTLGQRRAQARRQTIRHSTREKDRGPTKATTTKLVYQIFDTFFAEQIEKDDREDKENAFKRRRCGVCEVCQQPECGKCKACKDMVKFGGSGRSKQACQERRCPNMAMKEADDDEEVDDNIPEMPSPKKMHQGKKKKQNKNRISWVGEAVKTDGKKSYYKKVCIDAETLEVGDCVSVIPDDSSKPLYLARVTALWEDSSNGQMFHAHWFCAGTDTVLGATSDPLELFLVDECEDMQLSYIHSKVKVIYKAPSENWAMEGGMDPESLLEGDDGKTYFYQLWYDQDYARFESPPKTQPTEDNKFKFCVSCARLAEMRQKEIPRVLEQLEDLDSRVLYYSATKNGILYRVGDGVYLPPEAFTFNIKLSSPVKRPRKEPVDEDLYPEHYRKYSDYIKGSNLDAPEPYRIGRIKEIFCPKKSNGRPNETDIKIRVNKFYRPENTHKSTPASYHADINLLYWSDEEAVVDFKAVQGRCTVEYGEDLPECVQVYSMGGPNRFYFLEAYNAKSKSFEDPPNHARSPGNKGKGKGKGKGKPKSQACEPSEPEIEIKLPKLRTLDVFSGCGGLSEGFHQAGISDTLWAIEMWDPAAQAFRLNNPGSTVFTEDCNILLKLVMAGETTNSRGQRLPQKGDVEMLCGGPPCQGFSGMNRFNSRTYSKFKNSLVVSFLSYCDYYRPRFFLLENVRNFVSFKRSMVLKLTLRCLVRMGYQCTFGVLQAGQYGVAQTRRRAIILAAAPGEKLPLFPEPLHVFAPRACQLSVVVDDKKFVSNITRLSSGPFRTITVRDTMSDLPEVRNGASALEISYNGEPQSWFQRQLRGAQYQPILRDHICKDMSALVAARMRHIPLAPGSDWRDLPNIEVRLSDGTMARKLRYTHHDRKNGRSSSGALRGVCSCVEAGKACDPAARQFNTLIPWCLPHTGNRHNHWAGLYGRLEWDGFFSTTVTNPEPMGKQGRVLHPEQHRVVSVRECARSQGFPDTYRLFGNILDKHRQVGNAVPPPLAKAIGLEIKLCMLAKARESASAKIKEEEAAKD

[2] = binned activity in either the breaklight or the SPA assay
[3] = binned activity in either the breaklight or the SPA assay, read-out: DNMT1 BioChemical (pIC50 category) (converted)

## CCc1c(C#N)c(SCc2ccc(N(C)S(C)(=O)=O)cc2)nc(N2CCC(NCCOC)CC2)c1C#N [Example 557, N-(4-(((3,5-dicyano-4-ethyl-6-(4-((2-methoxyethyl)amino)piperidin-1-yl)pyridin-2-yl)thio)methyl)phenyl)-N-methylmethanesulfonamide]
[1]; HbF ELISA, day 7 EPCs, 5 days
  EC50: < 316 nM
DNMT1; [2]
  DNMT1 BioChemical (pIC50 category): D (Category D: ≥6.5)

## CCc1c(C#N)c(SC(C(N)=O)c2ccccc2)nc(N2CCC3(CCNC3)CC2)c1C#N.O=C(O)C(F)(F)F (stereo not drawn) [Example 17, 2-((3,5-dicyano-4-ethyl-6-(2,8-diazaspiro[4.5]decan-8-yl)pyridin-2-yl)thio)-2-phenylacetamide; 2,2,2-trifluoroacetic acid]
[1]
  EC50: < 316 nM
DNMT1; [2]
  DNMT1 BioChemical (pIC50 category): D (Category D: ≥6.5)

## CCc1c(C#N)c(SCc2ccc(CNCCO)cc2)nc(N2CCCN(C)CC2)c1C#N [Example 90, 4-Ethyl-2-((4-(((2-hydroxyethyl)amino)methyl)benzyl)thio)-6-(4-methyl-1,4-diazepan-1-yl)pyridine-3,5-dicarbonitrile]
[1]; HbF ELISA, day 7 EPCs, 5 days
  EC50: > 31600 nM
DNMT1; [3]
  IC50: 316 to 1000 nM

## N#Cc1c(SC(C(N)=O)c2ccccc2)nc(N2CCC(N3CCOCC3)CC2)c(C#N)c1C1CC1 (stereo not drawn) [Example 16]
[1]; HbF ELISA, day 7 EPCs, 5 days
  EC50: < 316 nM
DNMT1; [2]
  DNMT1 BioChemical (pIC50 category): D (Category D: ≥6.5)

## CCc1c(C#N)c(SC(C(N)=O)c2ccccc2)nc(N2CCC(N(C)CC)CC2)c1C#N (stereo not drawn) [Example 549, 2-((3,5-dicyano-4-ethyl-6-(4-(ethyl(methyl)amino)piperidin-1-yl)pyridin-2-yl)thio)-2-phenylacetamide]
[1]; HbF ELISA, day 7 EPCs, 5 days
  EC50: < 316 nM
DNMT1; [2]
  DNMT1 BioChemical (pIC50 category): D (Category D: ≥6.5)

## CNC1CCCN(c2nc(SC(C(N)=O)c3ccccc3)c(C#N)c(C3CC3)c2C#N)C1 (stereo not drawn) [Example 24, 2-((3,5-dicyano-4-cyclopropyl-6-(3-(methylamino)piperidin-1-yl)pyridin-2-yl)thio)-2-phenylacetamide]
[1]; HbF ELISA, day 7 EPCs, 5 days
  EC50: < 316 nM
DNMT1; [2]
  DNMT1 BioChemical (pIC50 category): D (Category D: ≥6.5)

## CCc1c(C#N)c(SC(C(N)=O)c2ccccc2)nc(N2CCO[C@H](CN(CC)CC)C2)c1C#N (stereo partly drawn) [Example 578, 2-((3,5-dicyano-6-((R)-2-((diethylamino)methyl)morpholino)-4-ethylpyridin-2-yl)thio)-2-phenylacetamide]
[1]; HbF ELISA, day 7 EPCs, 5 days
  EC50: < 316 nM
DNMT1; [2]
  DNMT1 BioChemical (pIC50 category): D (Category D: ≥6.5)

## CCc1c(C#N)c(SC(C(N)=O)c2ccccc2)nc(N2CCC(N3C(=O)COC3=O)CC2)c1C#N (stereo not drawn) [Example 260, 2-((3,5-Dicyano-6-(4-(2,4-dioxooxazolidin-3-yl)piperidin-1-yl)-4-ethylpyridin-2-yl)thio)-2-phenylacetamide]
[1]; HbF ELISA, day 7 EPCs, 5 days
  EC50: 1000 to 31600 nM
DNMT1; [3]
  IC50: 316 to 1000 nM

## CCc1c(C#N)c(SCc2ccc3c(c2)C(OC)(OC)C(=O)N3)nc(N2CCCN(C)CC2)c1C#N [Example 347, 2-(((3,3-Dimethoxy-2-oxoindolin-5-yl)methyl)thio)-4-ethyl-6-(4-methyl-1,4-diazepan-1-yl)pyridine-3,5-dicarbonitrile]
[1]; HbF ELISA, day 7 EPCs, 5 days
  EC50: 1000 to 31600 nM
DNMT1; [3]
  IC50: 316 to 1000 nM

## CCc1c(C#N)c(SCc2cnn(CCO)c2)nc(N2CCC(N)CC2)c1C#N [Example 363]
[1]; HbF ELISA, day 7 EPCs, 5 days
  EC50: 1000 to 31600 nM
DNMT1; [3]
  IC50: 316 to 1000 nM

## CCc1c(C#N)c(SC(C(N)=O)c2ccccc2)nc(N2CCS(=O)(=O)CC2)c1C#N (stereo not drawn) [Example 166, 2-((3,5-Dicyano-6-(1,1-dioxidothiomorpholino)-4-ethylpyridin-2-yl)thio)-2-phenylacetamide]
[1]; HbF ELISA, day 7 EPCs, 5 days
  EC50: < 316 nM
DNMT1; [3]
  IC50: 316 to 1000 nM

## CCc1c(C#N)c(SCc2ccc(S(C)(=O)=O)cc2)nc(N2CCCN(C)CC2)c1C#N [Example 379, 4-Ethyl-2-(4-methyl-1,4-diazepan-1-yl)-6-((4-(methylsulfonyl)benzyl)thio)pyridine-3,5-dicarbonitrile]
[1]; HbF ELISA, day 7 EPCs, 5 days
  EC50: 316 to 1000 nM
DNMT1; [3]
  IC50: 316 to 1000 nM
DNMT1; breaklight assay and/or SPA assay, repeated experimental runs, read-out: average pIC50 against DNMT1 (converted)
  IC50: 316 to 1000 nM and 794 nM

## CCc1c(C#N)c(SC(C(N)=O)c2ccccc2)nc(N2CCC(N(C)C)CC2)c1C#N (stereo not drawn) [Example 548, 2-((3,5-dicyano-6-(4-(dimethylamino)piperidin-1-yl)-4-ethylpyridin-2-yl)thio)-2-phenylacetamide]
[1]; HbF ELISA, day 7 EPCs, 5 days
  EC50: < 316 nM
DNMT1; [2]
  DNMT1 BioChemical (pIC50 category): D (Category D: ≥6.5)
